Source: US20260226048A1, “MULTI-CYCLIC IRAK AND FLT3 INHIBITING COMPOUNDS AND USES THEREOF” (CHILDREN'S HOSPITAL MEDICAL CENTER, priority 2023, published 2026)
Like-named read-outs stand apart in the source and are kept apart here.

Legend:
IRAK1 = molecular target: T1, IRAK1 (Homo sapiens, UniProt P51617); assay: RBC HotSpot Kinase Assay, IRAK1; type: biochemical; details: isolated kinase enzyme, 33P-ATP, P81 filter-binding
T1 construct: purchased Reaction Biology (RBC HotSpot)
How it was run: (§1)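 Radiometric HotSpot assay of catalytic activity with isolated recombinant kinase, possibly truncated or kinase domain only. Buffer: 20 mM Hepes pH 7.5, 10 mM MgCl2, 1 mM EGTA, 0.01% Brij35, 0.02 mg/ml BSA, 0.1 mM Na3VO4, 2 mM DTT, 1% DMSO, with cofactors specific to each kinase.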

FLT3 = molecular target: T2, FLT3 (Homo sapiens, UniProt P36888); assay: RBC HotSpot Kinase Assay, FLT3; type: biochemical; design: purchased Reaction Biology (RBC HotSpot); details: isolated kinase enzyme, 33P-ATP, P81 filter-binding
T2 sequence (P36888 27-993): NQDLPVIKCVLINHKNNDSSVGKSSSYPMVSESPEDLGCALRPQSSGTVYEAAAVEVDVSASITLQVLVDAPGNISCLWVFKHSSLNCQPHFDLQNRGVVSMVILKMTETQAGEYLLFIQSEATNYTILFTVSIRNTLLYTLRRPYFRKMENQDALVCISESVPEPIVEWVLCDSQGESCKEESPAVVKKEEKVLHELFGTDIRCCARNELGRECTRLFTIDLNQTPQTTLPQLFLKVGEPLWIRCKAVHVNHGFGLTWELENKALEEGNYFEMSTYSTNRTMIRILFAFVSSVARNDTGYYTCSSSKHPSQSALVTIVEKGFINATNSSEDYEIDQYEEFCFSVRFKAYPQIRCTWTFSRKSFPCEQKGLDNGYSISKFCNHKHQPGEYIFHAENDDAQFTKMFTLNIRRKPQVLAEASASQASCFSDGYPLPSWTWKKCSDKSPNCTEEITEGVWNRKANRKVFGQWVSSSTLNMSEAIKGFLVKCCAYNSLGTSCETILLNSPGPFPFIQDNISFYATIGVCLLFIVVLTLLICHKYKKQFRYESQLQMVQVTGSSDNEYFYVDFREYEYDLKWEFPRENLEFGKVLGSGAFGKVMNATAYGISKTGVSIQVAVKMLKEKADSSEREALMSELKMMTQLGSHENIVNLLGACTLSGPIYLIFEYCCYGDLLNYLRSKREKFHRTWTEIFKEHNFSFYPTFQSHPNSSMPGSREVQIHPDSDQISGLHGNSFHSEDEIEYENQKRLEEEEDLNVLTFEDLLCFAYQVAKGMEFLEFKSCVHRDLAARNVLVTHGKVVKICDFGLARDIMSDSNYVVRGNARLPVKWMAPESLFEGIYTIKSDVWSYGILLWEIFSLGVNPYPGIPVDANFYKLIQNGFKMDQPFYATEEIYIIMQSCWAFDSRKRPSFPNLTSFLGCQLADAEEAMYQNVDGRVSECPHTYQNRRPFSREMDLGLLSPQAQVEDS
How it was run: as §1

MOLM14 D835Y cells = assay: MOLM14 D835Y cell viability assay (Cell Titer Glo); type: cell-based; details: Homo sapiens, MOLM-14, 48 h, read-out: MOLM14 D835Y IC50
How it was run: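 MOLM14 cells with FLT3 D835Y or F691L kinase-domain resistance mutations seeded at 1000 cells/well and exposed to compound for 48 h under standard incubator conditions. Viability read by CellTiter-Glo luminescence after 15 min at room temperature.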

MOLM14 F691L cells = assay: MOLM14 F691L cell viability assay (Cell Titer Glo); type: cell-based; details: Homo sapiens, read-out: MOLM14 F691L IC50
Experimental: Both cell lines have activated FLT3 receptors, each of which carry additional resistance mutations in the kinase domain (D835Y and F691L, respectively).
For viability/cytotoxicity assessments, cells were seeded into 1536-well white polystyrene tissue culture-treated Greiner plates using a Multidrop Combi dispenser (ThermoFisher), in final volume 5 μL of growth media per well, at a density of 1000 cells per well. […] Plates were incubated for 48 hours at standard incubator conditions covered by a stainless steel gasketed lid to prevent evaporation. 48 hours post compound addition, 3 μL of Cell Titer Glo (Promega) were added to each well and plates were incubated at room temperature for 15 minutes with the stainless-steel lid in place. Luminescence readings were taken using a Viewlux imager (PerkinElmer) with a 2 second exposure time per plate.

IRAK4 = molecular target: T3, IRAK4 (Homo sapiens, UniProt Q9NWZ3); assay: RBC HotSpot Kinase Assay, IRAK4; type: biochemical; design: purchased Reaction Biology (RBC HotSpot); details: isolated kinase enzyme, 33P-ATP, P81 filter-binding
T3 sequence (Q9NWZ3 1-460): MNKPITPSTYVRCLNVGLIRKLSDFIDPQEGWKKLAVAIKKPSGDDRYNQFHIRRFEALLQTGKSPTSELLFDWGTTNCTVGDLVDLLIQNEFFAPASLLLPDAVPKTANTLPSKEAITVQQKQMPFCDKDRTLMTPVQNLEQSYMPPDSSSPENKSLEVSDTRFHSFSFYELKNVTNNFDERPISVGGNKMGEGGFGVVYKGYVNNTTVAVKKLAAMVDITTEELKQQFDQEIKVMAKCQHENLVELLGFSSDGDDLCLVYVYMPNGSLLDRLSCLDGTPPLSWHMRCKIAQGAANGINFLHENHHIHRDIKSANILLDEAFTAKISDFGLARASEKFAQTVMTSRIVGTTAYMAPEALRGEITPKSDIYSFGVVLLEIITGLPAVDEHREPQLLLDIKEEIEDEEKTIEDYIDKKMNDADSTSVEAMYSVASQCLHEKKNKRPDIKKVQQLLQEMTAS
How it was run: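 Radiometric filter-binding activity assay with isolated recombinant kinase (construct may be truncated or catalytic domain only) in 20 mM Hepes pH 7.5, 10 mM MgCl2, 1 mM EGTA, 2 mM DTT, 1% DMSO. Compound preincubated 20 min with kinase/substrate; reaction started with 33P-ATP, run 2 h at room temperature.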

[1] = cell viability, Cell Titer Glo, 48 hours
[2] = MOLM-14, cell viability, Cell Titer Glo, 48 hours

T1 sequence (P51617 whole entry): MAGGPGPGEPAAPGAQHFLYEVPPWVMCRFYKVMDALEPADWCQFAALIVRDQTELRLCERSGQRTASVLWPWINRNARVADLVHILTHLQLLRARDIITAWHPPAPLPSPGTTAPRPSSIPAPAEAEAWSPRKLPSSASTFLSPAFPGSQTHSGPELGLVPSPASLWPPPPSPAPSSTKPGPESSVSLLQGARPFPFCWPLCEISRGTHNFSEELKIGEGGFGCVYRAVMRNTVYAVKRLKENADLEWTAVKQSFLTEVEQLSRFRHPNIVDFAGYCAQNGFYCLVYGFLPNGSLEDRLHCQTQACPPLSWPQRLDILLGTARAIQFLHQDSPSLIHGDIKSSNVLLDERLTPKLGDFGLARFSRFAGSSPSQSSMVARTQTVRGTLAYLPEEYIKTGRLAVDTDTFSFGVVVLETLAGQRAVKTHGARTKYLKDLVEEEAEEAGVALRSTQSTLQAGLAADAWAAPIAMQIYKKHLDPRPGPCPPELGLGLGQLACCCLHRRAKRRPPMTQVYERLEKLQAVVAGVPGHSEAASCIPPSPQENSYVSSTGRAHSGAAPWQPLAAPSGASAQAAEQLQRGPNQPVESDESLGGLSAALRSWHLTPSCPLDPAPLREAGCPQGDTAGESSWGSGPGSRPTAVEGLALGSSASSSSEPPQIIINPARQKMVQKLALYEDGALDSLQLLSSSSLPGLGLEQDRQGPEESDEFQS

| Compound | IC50 (IRAK1) [nM] | IC50 (FLT3) [nM] | IC50 (MOLM14 D835Y cells; [1]) [nM] | IC50 (MOLM14 F691L cells; [2]) [nM] | IC50 (IRAK4) [nM] | IC50 (MOLM14 D835Y cells) [nM] | IC50 (MOLM14 F691L cells; MOLM-14, 48 h) [nM] |
| --- | --- | --- | --- | --- | --- | --- | --- |
| COc1cc2ncc(-c3nc(N[C@@H]4CCCNC4)ncc3F)n2nc1C1CCCC1 [Compound 62a, (R)-4-(6-cyclopentyl-7-methoxyimidazo[1,2-b]pyridazin-3-yl)-5-fluoro-N-(piperidin-3-yl)pyrimidin-2-amine] | 0.6 | < 0.5 | 1 | 9 | < 0.5 |  |  |
| COc1cc2ncc(-c3nc(N[C@H]4CNCC[C@@H]4F)ncc3F)n2nc1C1CCCC1 [Compound 63a, 4-(6-cyclopentyl-7-methoxyimidazo[1,2-b]pyridazin-3-yl)-5-fluoro-N-((3S,4S)-4-fluoropiperidin-3-yl)pyrimidin-2-amine] | < 0.5 | < 0.5 | 2 | 13 | < 0.5 |  |  |
| COc1cc2ncc(-c3nc(N[C@H]4CNC[C@@H]4F)ncc3F)n2nc1C1CCCCC1 [Compound 64a, 4-(6-cyclohexyl-7-methoxyimidazo[1,2-b]pyridazin-3-yl)-5-fluoro-N-((3S,4S)-4-fluoropyrrolidin-3-yl)pyrimidin-2-amine] | < 0.5 | < 0.5 | 6 | 57 | < 0.5 |  |  |
| COc1cc2ncc(-c3nc(N[C@@H]4CCCNC4)ncc3F)n2nc1C1CCCCC1 [Compound 65a, (R)-4-(6-cyclohexyl-7-methoxyimidazo[1,2-b]pyridazin-3-yl)-5-fluoro-N-(piperidin-3-yl)pyrimidin-2-amine] | < 0.5 | < 0.5 | 3 | 18 | < 0.5 |  |  |
| COc1cc2ncc(-c3nc(N[C@H]4CNCC[C@@H]4F)ncc3F)n2nc1C1CCCCC1 [Compound 66a, 4-(6-cyclohexyl-7-methoxyimidazo[1,2-b]pyridazin-3-yl)-5-fluoro-N-((3S,4S)-4-fluoropiperidin-3-yl)pyrimidin-2-amine] | < 0.5 | < 0.5 |  |  | 0.6 | 4 | 28 |
| COc1cc2ncc(-c3nc(N[C@H]4CNC[C@@H]4F)ncc3F)n2nc1C12CC(C1)C2 [Compound 67a, 4-(6-(bicyclo[1.1.1]pentan-1-yl)-7-methoxyimidazo[1,2-b]pyridazin-3-yl)-5-fluoro-N-((3S,4S)-4-fluoropyrrolidin-3-yl)pyrimidin-2-amine] | 1 | < 0.5 | 9 | 57 | 0.9 |  |  |
| COc1cc2ncc(-c3nc(N[C@H]4CNCC[C@@H]4F)ncc3F)n2nc1C12CC(C1)C2 [Compound 69a, 4-(6-(bicyclo[1.1.1]pentan-1-yl)-7-methoxyimidazo[1,2-b]pyridazin-3-yl)-5-fluoro-N-((3S,4S)-4-fluoropiperidin-3-yl)pyrimidin-2-amine] | 0.9 | < 0.5 | 3 | 25 | 0.7 |  |  |
| COc1cc2ncc(-c3ccnc(N[C@H]4CNC[C@@H]4F)n3)n2nc1C1CC2(CCC2)C1 [Compound 75a, N-((3S,4S)-4-fluoropyrrolidin-3-yl)-4-(7-methoxy-6-(spiro[3.3]heptan-2-yl)imidazo[1,2-b]pyridazin-3-yl)pyrimidin-2-amine] | 102 | < 0.5 | 63 | 634 | 6 |  |  |
| COc1cc2ncc(-c3ccnc(N[C@@H]4CCCNC4)n3)n2nc1C1CC2(CCC2)C1 [Compound 76a, (R)-4-(7-methoxy-6-(spiro[3.3]heptan-2-yl)imidazo[1,2-b]pyridazin-3-yl)-N-(piperidin-3-yl)pyrimidin-2-amine] | 37 | < 0.5 | 101 | 1130 | 21 |  |  |
| COc1cc2ncc(-c3ccnc(N[C@H]4CNC[C@@H]4F)n3)n2nc1C1CCC1 [Compound 77a, 4-(6-cyclobutyl-7-methoxyimidazo[1,2-b]pyridazin-3-yl)-N-((3S,4S)-4-fluoropyrrolidin-3-yl)pyrimidin-2-amine] | 12 | < 0.5 | 16 | 142 | 1 |  |  |
| COc1cc2ncc(-c3ccnc(N[C@H]4CNC[C@@H]4F)n3)n2nc1C1CC(C)(C)C1 [Compound 80a, 4-(6-(3,3-dimethylcyclobutyl)-7-methoxyimidazo[1,2-b]pyridazin-3-yl)-N-((3S,4S)-4-fluoropyrrolidin-3-yl)pyrimidin-2-amine] | 142 | < 0.5 | 90 | 798 | 17 |  |  |
| COc1cc2ncc(-c3ccnc(N[C@@H]4CCCNC4)n3)n2nc1C1CC(C)(C)C1 [Compound 81a] | 49 | < 0.5 | 90 | 1260 | 55 |  |  |
| COc1cc2ncc(-c3ccnc(N[C@H]4CNC[C@@H]4F)n3)n2nc1C1CCCC1 [Compound 83a, 4-(6-cyclopentyl-7-methoxyimidazo[1,2-b]pyridazin-3-yl)-N-((3S,4S)-4-fluoropyrrolidin-3-yl)pyrimidin-2-amine] | 8 | < 0.5 | 16 | 113 | 0.6 |  |  |
| COc1cc2ncc(-c3ccnc(N[C@@H]4CCCNC4)n3)n2nc1C1CCCC1 [Compound 84a, (R)-4-(6-cyclopentyl-7-methoxyimidazo[1,2-b]pyridazin-3-yl)-N-(piperidin-3-yl)pyrimidin-2-amine] | 18 | < 0.5 | 14 | 113 | 2 |  |  |
| COc1cc2ncc(-c3ccnc(N[C@H]4CNCC[C@@H]4F)n3)n2nc1C1CCCC1 [Compound 85a, 4-(6-cyclopentyl-7-methoxyimidazo[1,2-b]pyridazin-3-yl)-N-((3S,4S)-4-fluoropiperidin-3-yl)pyrimidin-2-amine] | 7 | < 0.5 | 11 | 90 | 1 |  |  |
| COc1cc2ncc(-c3ccnc(N[C@H]4CNC[C@@H]4F)n3)n2nc1C1CCCCC1 [Compound 86a, 4-(6-cyclohexyl-7-methoxyimidazo[1,2-b]pyridazin-3-yl)-N-((3S,4S)-4-fluoropyrrolidin-3-yl)pyrimidin-2-amine] | 16 | < 0.5 | 18 | 142 | 1 |  |  |
